# From patent US20250092395A1, “A GLUN2D INHIBITOR FOR USE IN THE TREATMENT OR RELAPSE PREVENTION OF A DEPRESSIVE EPISODE” (priority 2022, published 2025)
# “Also recorded” adds a separate entry of the source.
# Legend:
# [1] = tested on: mice subjected to the chronic despair model (CDM); assay: Chronic despair model (CDM) swim test, immobility time; format: in vivo; settings: for immobility time of CDM mice treated with NAB-14, comedication: CIQ (10 mg/kg) or lorazepam (0,125 mg/kg) applied prior to NAB-14
# Experimental: Induction phase: Mice were forced to swim in a glass cylinder (0 26 cm, 60 cm high) filled to 25 cm with 25° C. warm water for 10 min on 5 consecutive days. After the swimming, the animals were kept in their cages for two days before treatment and experiment readout was performed. The immobility time was measured in each session.
# (§1) Behavioral Readout: After the treatment intervention, animals were either tested in an additional swim session (test day) to measure immobility time or tested in the InteliCage using the Nose-pokes sucrose preference test. For the assessment of the immobility time, mice were videotaped and two independent raters who were blinded to the experimental group analyzed the videos. Immobility time was defined as the cumulative time that the animals spend stationary with only enough movements of the tails or the forepaws to keep the head above the water surface. No distance is actively travelled except for passive floating, no directed movement of the front paws observed and the body of the animal mostly oriented parallel to the walls of the cylinder.
# CDM mice = assay: Nose-poke sucrose preference test in CDM mice; format: in vivo; settings: CIQ or lorazepam applied prior to NAB-14
# Description: as §1
# The IntelliCage system (TSE Systems) allows simultaneous analysis of spontaneous and exploratory behavior, activity pattern, and drinking preference of up to 16 group-housed mice implanted with radio-frequency identification (RFID) transponders. The unit consists of an open common space with 4 red shelters in the center and 4 recording corners. Mice have free access to food in the middle of the IntelliCage, water is available in the corners behind remote-controlled guillotine doors. Each corner is equipped with 2 drinking bottles and permits the visit of only one mouse at the same time. The scored parameters—the nosepokes toward the doors and the licks on the bottles—were monitored by a PC-based tracking software (IntelliCage Plus, TSE Systems). Initially, the mice were allowed to adapt to the IntelliCage for at least 7 days with water available ad libitum in all corners. Then for 3 days the animals were habituated to the sucrose taste: in each corner one of the bottles was filled with 1% sucrose solution and the other one with water. Both doors in the corner were open allowing free choice between the bottles. Next, a nosepoke adaptation period was carried out, where all doors were closed and the mice had to perform a nosepoke to open them. The opened door closes automatically after 5 s of drinking. In all tasks involving sucrose-filled bottles, the positions of the bottles were exchanged every 24 h. The Nosepoke SPT protocol was used (see Alboni et al.) for measurement of sucrose preference with gradually increasing effort (number of nosepokes) to reach the sucrose bottles for a short period of time (12 h). In this paradigm each door opens in response to a nosepoke and closes after 5 s licking. The number of nosepokes needed to open a door to a side with a sucrose containing bottle gradually increases (1, 2, 3, 4, 5, 6, 8, 10, 12, 16, 20, 24) after every 8 sucrose licking sessions. For each bottle the number of licks was recorded and the averaged sucrose preference was calculated as percentage of the total number of licks.
# [2] = tested on: CA3-CA1 synapse in hippocampal brain slices of CDM mice; assay: aLTP/aLTD inducibility in hippocampal brain slices of CDM mice after in vivo treatment; settings: for LTP reestablishment by NAB-14, comedication / CDM-induced blockade of LTP inducibility (aLTP) / LTD inducibility (EPSP amplitude after aLTD protocol): CDM mice; for LTP reestablishment by NAB-14, comedication: CIQ or lorazepam injected 20 min prior to NAB-14; for CDM-induced blockade of LTP inducibility (aLTP): pretreatment; for LTD inducibility (EPSP amplitude after aLTD protocol): treatment after CDM
# Experimental: Animals were preoxygenated in a 100% oxygen atmosphere for 5 min before cervical dislocation and decapitated according to national and institutional guidelines. Transverse 300 […] were cut from hippocampus with a Vibratome (VT1200, Leica, Japan). Slices were prepared in artificial cerebrospinal fluid (ACSF) containing (in mmol/I): 125 NaCl, 25 NaHCO3, 1.25 NaH2PO4, 2.5 KCL, 1 MgCl2, 27 Glucose, 2 CaCl2) bubbled with carbogen (95% O2, 5% CO2).
# After 20 min resting time at 35° C., slices were kept at room temperature in aCSF and transferred into the recording chamber (volume approx. 2-3 ml) and continuously superfused with aCSF (rate approx. 5-10 ml/min-). Differential interference contrast video microscopy was used to identify location of CA1 pyramidal neurons (Zeiss Axioskop 2 FS plus, Zeiss Microscopy, Germany). Beside optical identification neurons were classified according to their characteristic firing frequency adaptation to long depolarising current pulses. Borosilicate glass tubes (2.0 mm outer diameter, 0.5 mm wall thickness; Hilgenberg, Germany) were used to pull patch pipettes. Pipettes with a resistance of 5-10 MΩ were used and series resistance of 10-50 MΩ was compensated by bridge balance. Patch pipettes were filled with an internal solution containing (in mM) for EPSP-measurements: 132K-gluconate, 20KCL, 2MgCl2, 10Hepes, 0.1EGTA, 4 Na2ATP, 0.3NaGTP. PH was adjusted to 7.2 with KOH. For current measurements: 135Csgluconate, 2CsCl, 5 QX314, 10 Hepes, 10EGTA, 2MgCl2, 2Na2ATP, 2TEACI, pH was adjusted to 7.2 with HCl. Osmolarity (280-300 mosmol/1) was controlled at the beginning of each experimental day with Osmomat (Gonotec GmbH, Germany).
# A stimulation pipette (patch pipette with 1-3 MΩ resistance when filled with internal solution) was placed superficially in the stratum radiatum of the CA1 region in approximately […] distance to the pyramidal cell layer. Subthreshold excitatory postsynaptic potentials (EPSPs, 2 7 mV) were evoked by Schaffer collateral stimulation with voltage pulses of 10-80 V (frequency of 0.1 Hz, duration of 200 μs) using a stimulus isolator (Model 2100 Isolated pulse stimulator, Carlsborg, U.S.A.). Resting membrane potentials were between −75 and −65 mV and holding potential was −70 mV. 50 ms current test pulses (leading to 5-10 mV hyperpolarization) were applied to control input and series resistances after every 10th EPSP. EPSPs were combined with APs triggered by short (3 ms) current application of 900 pA via the patch-clamp electrode. EPC-10 amplifiers (HEKA, Germany) were used and signals were filtered at 5 kHz. Patchmaster NEXT software (Version 1.2, HEKA, Germany) was used for data acquisition and experiments were performed at room temperature.
# aLTP: Five EPSPs and five postsynaptic APs were paired at 100 Hz with a 5 ms delay (AP after EPSP). Five of these bursts of synchronized EPSP→AP pairs were applied at theta frequency (5 Hz), followed by an interval of 10 sec and 4 more theta blocks, resulting in 125 EPSP/AP pairings.
# aLTD: 360 postsynaptic APs were pared with 360 EPSPs with a delay of 20-30 ms between each AP/EPSP pairing at a frequency of 1 Hz. 1 Hz LTD: 600 EPSPs were elicited at a frequency of 1 Hz whilst CA1 pyramidal cell membrane potential was hold at −60 mV.
# Long-term plasticity or molecular analyses were assessed as described above after the induction phase of the CDM and the specific treatment.
# EPSP measurement: For baseline measurement, the mean amplitudes of 30 consecutive EPSPs before the induction protocol were calculated. 25 min after LTP induction the mean amplitude of 30 consecutive EPSPs was calculated and compared to the baseline of the same measurement. Changes of EPSP amplitudes were expressed as percentages of the baseline measurement and analysed for each experimental group applying a two-tailed Wilcoxon test. The differences between separate experimental groups were assessed using the Mann-Whitney test, not assuming normal distribution. […]
# AMPAR and NMDAR currents = assay: Control experiments: currents recorded at −80 mV and +40 mV; format: cell-based, mice; settings: CNQX 10 μM; for currents recorded at −80 mV: then addition of DAPV 100 μM; for currents recorded at +40 mV: DAPV 100 μM
# [3] = tested on: CA3-CA1 synapse, CA1 pyramidal neurons in hippocampal brain slices; assay: LTP/LTD protocols and wash-in in brain slices of unstressed mice, substance in bathing solution; format: cell-based; settings: hydrochloride; for LTP inducibility, associative LTP protocol (aLTP): unstressed mice, bath with picrotoxin, R,S-ketamine 10 μM, S-ketamine 5 μM
smiles,measurement,setting,value
COc1ccc(OCC2c3cc(OC)c(OC)cc3CCN2C(=O)c2cccc(Cl)c2)cc1 (stereo not shown) [CIQ],"immobility time of CDM mice treated with NAB-14, comedication",[1],did not improve; also recorded: blocked NAB-14 effects
same,"sucrose preference of CDM mice treated with NAB-14, comedication",CDM mice,did not improve
same,"LTP reestablishment by NAB-14, comedication",[2],abolishing LTP reestablishment; also recorded: blocked NAB-14 effects completely
"N#Cc1cc2c(cc1[N+](=O)[O-])=NC(=O)C(=O)N=2 [CNQX, 6-Cyano-7-nitroquinoxaline-2,3-dione]",currents recorded at −80 mV,AMPAR and NMDAR currents,fully blocked
same,currents recorded at +40 mV,AMPAR and NMDAR currents,only partially be reduced; also recorded: only partially influenced
"N[C@H](CCCP(=O)(O)O)C(=O)O [DAPV, D-(−)-2-Amino-5-phosphonopentanoic acid]",currents recorded at −80 mV,AMPAR and NMDAR currents,did not significantly change; also recorded: did not have further effects
same,currents recorded at +40 mV,AMPAR and NMDAR currents,full blockade; also recorded: fully blocked
"N[C@@]1(c2ccccc2Cl)CCC[C@@H](O)C1=O [HNK, 2R,6R Hydroxynorketamine]",CDM-induced blockade of LTP inducibility (aLTP),[2],neither HNK nor mGluR2 antagonist 1 treatment did change this blockade
same,LTD inducibility (EPSP amplitude after aLTD protocol),[2],abolishes this reduction of amplitude; also recorded: completely blocked the LTD inducibility
same,EPSP amplitude after aLTD,"[2]; treatment prior to swim sessions (before CDM), male and female mice",complete revers of EPSP amplitudes
"COc1ccc2nc(/C=C/c3cccc([N+](=O)[O-])c3)n(-c3ccc(C(=O)O)cc3)c(=O)c2c1 [QNZ46, 4-[6-Methoxy-2-[(1E)-2-(3-nitrophenyl)ethenyl]-4-oxo-3(4H)-quinazolinyl]-Benzoic acid]",immobility time,"[1]; CDM mice, 7 mg/kg i.p. two hours before behavioral readout, n=10",significantly reduced
"CN[C@]1(c2ccccc2Cl)CCCCC1=O.Cl [S-ketamine, S-Ketamine hydrochloride]","EPSP amplitude after associative LTD protocol (aLTD, NMDAR-independent)",[3],"unaffected; also recorded: neither R,S-ketamine (10 μM) nor S-ketamine (5 μM) had an effect"
same,"LTD inducibility, non-associative 1 Hz LTD protocol (NMDAR-dependent)",[3],fully blocked; also recorded: abolished
same,"LTP inducibility, non-associative 100 Hz LTP protocol",[3],significant blockade of inducibility of LTP
same,aLTP induction,[3],neither K nor SK blocked aLTP induction; also recorded: not affected
same,"LTP inducibility, associative LTP protocol (aLTP)",[3],significant blockade of inducibility of LTP
same,"LTP inducibility, associative LTP protocol (aLTP)",[3]; listed as SK,complete inhibition of LTP
O=C1Nc2ccc(Cl)cc2C(c2ccccc2Cl)=NC1O (stereo not shown) [lorazepam],"immobility time of CDM mice treated with NAB-14, comedication",[1],did not improve
same,"immobility time of CDM mice treated with NAB-14, comedication",[1]; listed as Lorazepam,blocked NAB-14 effects
same,"sucrose preference of CDM mice treated with NAB-14, comedication",CDM mice,did not improve
same,"LTP reestablishment by NAB-14, comedication",[2],abolishing LTP reestablishment
same,"LTP reestablishment by NAB-14, comedication",[2]; listed as Lorazepam,blocked NAB-14 effects completely
same,"LTP inducibility, lorazepam alone",[2]; control and CDM condition,did block LTP inducibility
"NC(=O)c1cc(-c2ccc(F)cc2)c2ccc(CN3C(=O)CCC3=O)cc2n1 [mGluR2 antagonist 1, 7-[(2,5-dioxopyrrolidin-1-yl)methyl]-4-(4-fluorophenyl)quinoline-2-carboxamide]",CDM-induced blockade of LTP inducibility (aLTP),[2],neither HNK nor mGluR2 antagonist 1 treatment did change this blockade
same,LTD inducibility (EPSP amplitude after aLTD protocol),[2],abolishes this reduction of amplitude; also recorded: completely blocked the LTD inducibility
